Assay results taken from patent US20240150755A1, “MODULATING REGULATORY T CELL FUNCTION IN AUTOIMMUNE DISEASE AND CANCER” (Salk Institute for Biological Studies, priority 2021, published 2024).

Columns and labels:
Rag1^−/− mice = assay: Adoptive T cell transfer-induced colitis model; format: in vivo, mouse
Text: Treg cells were transduced by retrovirus expressing sgRNA targeting gene of interest, and cultured in X-VIVO® complete media and IL-2 (500 U/ml). Four days after transduction, the NGFR^+ transduced Treg cells were FACS sorted before transferred into recipient mice. To induce colitis, 2 million effector T cells (CD45.1^+CD4^+CD25^−CD45RB^hi) and 1 million sgRNA transduced Treg cells (CD45.2^+ CD4^+ Thy1.1^+ NGFR^+) were mixed together and transferred into Rag1^−/− recipient mice. The body weight of recipient mice was monitored weekly for signs of wasting symptoms. Mice were harvested 7 weeks after T cell transfer. Spleens were used for profiling immune cell populations by FACS. Colons were collected for histopathological analysis.
Histopathological analysis was performed in a blinded manner and scored using the following criteria: eight parameters were used, including (i) the degree of inflammatory infiltrate in the LP (0-3); (ii) Goblet cell loss (0-2); (iii) reactive epithelial hyperplasia/atypia with nuclear changes (0-3); (iv) the number of IELs in the epithelial crypts (0-3); (v) abnormal crypt architecture (distortion, branching, atrophy, crypt loss) (0-3); (vi) number of crypt abscesses (0-2); (vii) mucosal erosion to frank ulcerations (0-2) and (viii) submucosal spread to transmural involvement (0-2). The severity of lesion was scored independently in 3 regions (proximal, middle and distal colon) over a maximal score of 20. The overall colitis score was based as the average of each regional score (maximal score of 20).

[1] = test system: MC38 colorectal tumor cell line; assay: Adoptive T cell transfer and MC38 tumor model; format: in vivo, mouse
Text: Similar to the “Adoptive T cells transfer-induced colitis model,” Treg cells were activated in vitro and transduced with pSIRG-GFP expressing sgNT or sgBrd9. Four days after transduction, the GFP+ transduced Treg were FACS sorted. Concurrently, Treg depleted CD4 and CD8 T cells isolated from Rosa-Cas9/Foxp3^Thy1.1 mice were used as effector T cells. A total of 1 million pSIRG-sgRNA transduced GFP+ Treg cells, 1 million effector CD8 T cells, and 2 million Treg-depleted CD4 T cells were mixed and transferred into Rag1^−/− recipient mice. On the following day, mice were implanted with 0.5 million MC38 cells by subcutaneous injection on the flank of mouse. When palpable tumor appeared, tumor size was measured every two day by electronic calipers. At the end point, spleen and tumor were collected for immune profiling. For tumor processing, tumor tissues were minced into small pieces and digested with 0.5 mg/mL Collagenase IV (Sigma #C5138) and DNAase I (Roche #4716728001) for 20 minutes and passed through […] cell strainer to collect single cell suspension. Isolated cells were stimulated with PMA/Ionomycin and GolgiPlug™ for 5 hours, and then were subjected to Foxp3 and cytokines staining with eBioscience® Fix/Perm buffer (eBioscience #00-5523-00).

Foxp3 target genes = assay: RNA-seq and gene set enrichment analysis in Treg cells; format: cell-based, mouse
Text: For large scale Treg culture, Tregs were first expanded in Rosa-Cas9/Foxp3^Thy1.1 mice by injecting IL-2:IL-2 antibody immune complex according protocol described in Webster et. al (J Exp Med 206, 751-760, 2009). Spleen and lymph node Treg cells were labeled with PE-conjugated Thy1.1 antibody and isolated by magnetic selection using anti-PE microbeads (Mitenyl #130-048-801). All isolated Treg cells were activated by plate bound anti-CD3 and anti-CD28 antibodies and cultured with X-VIVO® 20 media (LONZA #04-448Q) supplemented by 1× Pen/Strep, 1× Sodium pyruvate, 1× HEPES, 1× GlutaMax™, 55 μM beta-mercaptoethanol in the presence of IL-2 at 500 units/mL. For experiments with Brd9 degradation, Treg cells were treated at day 0 with 2.5 μM dBRD9 (Tocris #6606) and cultured for four days for RNA- and ChIP-seq and 0.16-10 μM treated at day 0 and cultured dBRD9 for four days for Foxp3 MFI, cell viability and cell proliferation assays. Live cells were enriched by Ficoll-Paque® 1.084 (GE Health 17-5446-02) for RNA-seq and ChIP-seq.
RNA from 1-3×10^6 cells was extracted and purified with TRIzol™ reagent (Thermo Fisher) according to manufacturer's instructions. RNA-seq libraries were prepared using Illumina® TruSeq® Stranded mRNA kit following manufacturer's instructions with 5 μg of input RNA.
Single-end 50 bp reads were aligned to the mouse genome mm10 using STAR alignment tool (V2.5) (Dobin et al., Bioinformatics 29:15-21, 2013). RNA expression was quantified as raw integer counts using analyzeRepeats.pl in HOMER (Heinz et al., Mol Cell 38:576-589, 2010) using the following parameters: -strand both -count exons -condenseGenes -noadj. To identify differentially expressed genes, getDiffExpression.pl in HOMER was used, which uses the DESeq2R package to calculate the biological variation within replicates. Cut-offs were set at log 2 FC=0.585 and FDR at 0.05 (Benjamin-Hochberg). Principal Component Analysis (PCA) was performed with the mean of transcript per million (TPM) values using Cluster 3.0 with the following filter parameters: at least one observation with absolute value equal or greater than two and gene vector of four. TPM values were log transformed then centered on the mean.
GSEA software (Mootha et al., Nat Genet 34:267-273, 2003; Subramanian et al., PNAS 102:15545-15550, 2005) was used to perform the analyses with the following parameters: number of permutations=1000; enrichment statistic=weighted; and metric for ranking of genes=difference of classes (Input RNA-seq data was log-transformed). For GSEA analysis, input RNA-seq data contained the normalized log-transformed reads of the 1,325 differentially expressed genes (DEGs) in sgFoxp3/sgNT Treg cells. The compiled gene list included GSEA Gene Ontology, Immunological Signature, Curated Gene, and the up and down DEGs in sgBrd9/sgNT Treg cells.
For gene expression analysis in FIG. 42F, Foxp3 ChIP-seq tags were quantified at the union of sites bound by Foxp3 in sgNT and sgBrd9 using the annotatePeaks.pl command in HOMER with size-given and each site was annotated to a gene by mapping to the nearest TSS. Sites were ranked from least to largest Foxp3 ChIP-seq Log2FC in sgBrd9 vs sgNT and divided into quartiles. Gene expression for the genes in the top and bottom quartiles (Brd9-dependent and -independent, respectively) was then plotted using RNA-seq data from Treg cells transduced with sgBrd9, sgSmarcd1, or sgPbrm1 compared to sgNT. […]

[2] = transferred Treg population, vs sgNT

In the case of “sgBrd9: sgRNA targeting Brd9, ATTAACCGGTTTCTCCCGGG (SEQ ID NO: 12) (expressed or natural sequence)”, the “protection of recipient mice from body weight loss” value (Rag1^−/− mice; co-transfer of Teff and sgRNA transduced Treg cells into Rag1^−/− mice) is reported as “failed to protect recipients from losing weight”, the “Foxp3^+ cell frequencies within the CD45.2^+CD4^+ transferred Treg population” value (Rag1^−/− mice; end point of colitis model) is reported as “reduced Foxp3^+ cell frequencies” and the colitis pathology (Rag1^−/− mice; seven weeks after transfer, vs control Treg cells) is reported as “significant colitis pathology”. The tumor growth ([1]; Rag1^−/− mice receiving sgRNA transduced Treg cells vs sgNT Treg cells) was “significantly slower”, the “percentage of transferred Treg cells” value ([1]; relative to sgNT Treg cells) was “reduced” and the “GFP^+Foxp3^− ex-Treg population” value [1, 2] was “increase”. For the same substance, the “percentage of ex-Treg cells producing IFN-γ” value [1, 2] was “higher percentage”, the “increase in the ratio of CD8 T cells to Treg cells” value ([1]; tumor and spleen, sgBrd9 versus sgNT) was 2-3 fold and the “CD4 and CD8 T cell tumor infiltration” value ([1]; vs sgNT Treg cells) was “significantly increased”. The “percentage of IFN-γ producing intra-tumor CD4 and CD8 T cells” value ([1]; vs sgNT Treg condition) was “significantly greater”, the “enrichment of increased/decreased genes among sgFoxp3 regulated genes (GSEA)” value (Foxp3 target genes; sgBrd9/sgNT vs sgFoxp3/sgNT Treg cells) was “significantly enriched among genes that increase upon sgFoxp3 targeting” and the “gene expression of Brd9-dependent vs Brd9-independent Foxp3 target genes” value (Foxp3 target genes; sgRNA transduced Treg cells vs sgNT) was “significantly more affected”.
